From US8486996B2, “Aroylfuranes and aroylthiophenes” (Basilea Pharmaceutica AG, priority 2006, dated 2013)
Where two headings read alike, the source gives them in different places.

Tests used:
Format in all cases: cell-based
[1] = Hoechst 33342 nuclear staining (48 h read-out)
Method: (§1) A) Hoechst 33342 Nuclear Staining
(§2) This assay is performed in 96 well tissue culture plates. Appropriate number of cells (adherent cells: 3-5*10^3, suspension cells: 8-10*10^3) are being seeded out in 80 μl complete medium. Adherent cells are incubated for 24 h for proper spreading out before addition of test compounds while suspension cells are immediately treated with test compounds after seeding out. The test compounds are added in 20 μl complete medium containing max 5% DMSO. The final compound concentrations in the assays are in the range of 0.001 μM-10 μM. After 24 h or 48 h incubation at culture conditions, 10 μl medium containing Hoechst 33342 dye (Sigma B-2261) at 2-5 μg/ml are added to each well. The assay plates are then further incubated for 30 minutes and subsequently analyzed with a standard inverted fluorescence microscope.
(§3) The readout allows the determination of the fraction of apoptotic nuclei as well as other morphological criteria specific for apoptosis as a function of the treatment. The scores A, B, C and D are explained at the end of the Table.

tumor cells [2] = experiment: Hoechst 33342 nuclear staining (48 h read-out)
Method: as §1, §2, §3

tumor cells [3] = experiment: MTS proliferation assay (72 h read-out)
Method: B) MTS Proliferation Assay
The assay is performed in 96 well tissue culture plates. The cells (range: 1.5*10^3-10^4) are seeded out in 80 μl complete medium 24 h prior to compound treatment. The test compounds are added in 20 μl complete medium containing max 5% DMSO. The final compound concentrations in the assays are in the range of 0.001 μM-10 μM. The assay plates are incubated for 72 h at culture conditions. The MTS reagent is prepared according to the manufacturer's protocol (Promega G1111). 20 μl MTS reagent are added to each well; the assay plates are quickly spun and incubated for another 3 h at culture conditions. Subsequently, the plates are shortly shaked and absorption measured with a microplate-reader at 492 nm. The scores A, B, C and D are explained at the end of the Table.

tumor cells [4] = experiment: Mitochondrial membrane potential, JC-1 (read-out 48 h); details: JC-1, 48 h
Method: D) Mitochondrial Membrane Potential
as §2, with “The final compound concentrations in the assays are in the range of 0.001 μM-10 μM.” left out, “JC-1 (Molecular Probes, T-3168)” for “Hoechst 33342 dye (Sigma B-2261)”, “microscope by using the FITC and TRITC filters.” for “microscope.”
The readout allows the determination of the fraction of cells which show a dissipation of the mitochondrial membrane potential strongly indicating an apoptotic cell death as a function of the treatment. The scores A, B, C and D are explained at the end of the Table.

[5] = Homo sapiens, MRC5 cells, read-out: Hoechst 33342 nuclear staining EC50, MRC5
[6] = Homo sapiens, HeLa cells, read-out: Hoechst 33342 nuclear staining EC50, HeLa
[7] = Homo sapiens, Jurkat cells, read-out: Hoechst 33342 nuclear staining EC50, Jurkat
[8] = Homo sapiens, HT-1080, HT1080 cells, read-out: MTS proliferation assay IC50, HT1080
[9] = Homo sapiens, HeLa cells, read-out: MTS proliferation assay IC50, HeLa
[10] = Homo sapiens, Jurkat cells, read-out: MTS proliferation assay IC50, Jurkat
[11] = Jily cells, read-out: MTS proliferation assay IC50, Jily
[12] = Homo sapiens, HeLa cells, read-out: Mitochondrial membrane potential (read-out 48 h) HeLa
[13] = Homo sapiens, Jurkat cells, read-out: Mitochondrial membrane potential (read-out 48 h) Jurkat
[14] = Homo sapiens, MCF7 cells, read-out: Mitochondrial membrane potential (read-out 48 h) MCF7
[15] = Jily cells, read-out: Mitochondrial membrane potential (read-out 48 h) Jily
[16] = MRC5 cells, read-out: Hoechst 33342 nuclear staining EC50, MRC5
[17] = HeLa cells, read-out: Hoechst 33342 nuclear staining EC50, HeLa
[18] = Jurkat cells, read-out: Hoechst 33342 nuclear staining EC50, Jurkat
[19] = HT1080 cells, read-out: MTS proliferation assay IC50, HT1080
[20] = HeLa cells, read-out: MTS proliferation assay IC50, HeLa
[21] = Jurkat cells, read-out: MTS proliferation assay IC50, Jurkat
[22] = HeLa cells, read-out: Mitochondrial membrane potential (read-out 48 h) HeLa
[23] = Jurkat cells, read-out: Mitochondrial membrane potential (read-out 48 h) Jurkat
[24] = MCF7 cells, read-out: Mitochondrial membrane potential (read-out 48 h) MCF7

Row | Structure (SMILES) | IC50 (tumor cells [3]; [11]) | EC50 (tumor cells [4]; [15]) | EC50 [1, 16] | EC50 (tumor cells [2]; [17]) | EC50 (tumor cells [2]; [18]) | IC50 (tumor cells [3]; [19]) | IC50 (tumor cells [3]; [20]) | IC50 (tumor cells [3]; [21]) | EC50 (tumor cells [4]; [22]) | EC50 (tumor cells [4]; [23]) | EC50 (tumor cells [4]; [24]) | other results
1 | CCOc1ccc(F)cc1C(=O)c1sc2nc(C)c(C)cc2c1N [Example 118, 5,6-Dimethyl-3-amino-2-(2′-ethoxy-5′-fluorobenzoyl)-thieno[2,3-b]pyridine] | 10 to 100 nM | 10 to 100 nM | – | – | – | – | – | – | – | – | – | EC50 [1, 5]: 10 to 100 nM; EC50 (tumor cells [2]; [6]): 10 to 100 nM; EC50 (tumor cells [2]; [7]): 10 to 100 nM; IC50 (tumor cells [3]; [8]): 10 to 100 nM; IC50 (tumor cells [3]; [9]): 10 to 100 nM; IC50 (tumor cells [3]; [10]): 10 to 100 nM; EC50 (tumor cells [4]; [12]): 100 to 1000 nM; EC50 (tumor cells [4]; [13]): 10 to 100 nM; EC50 (tumor cells [4]; [14]): > 1000 nM
2 | Cc1cc2c(N)c(C(=O)c3cc(F)ccc3N3CCOCC3)sc2nc1C [Example 119, 5,6-Dimethyl-3-amino-2-(2′-N-morpholino-5′-fluorobenzoyl)-thieno[2,3-b]pyridin] | 10 to 100 nM | 100 to 1000 nM | – | – | – | – | – | – | – | – | – | EC50 [1, 5]: 10 to 100 nM; EC50 (tumor cells [2]; [6]): 100 to 1000 nM; EC50 (tumor cells [2]; [7]): 10 to 100 nM; IC50 (tumor cells [3]; [8]): 10 to 100 nM; IC50 (tumor cells [3]; [9]): 100 to 1000 nM; IC50 (tumor cells [3]; [10]): 10 to 100 nM; EC50 (tumor cells [4]; [12]): > 1000 nM; EC50 (tumor cells [4]; [13]): 100 to 1000 nM; EC50 (tumor cells [4]; [14]): > 1000 nM
3 | CCOc1ccc(F)cc1C(=O)c1sc2ncc(C#N)cc2c1N [Example 120, 5-Cyano-3-amino-2-(2′-ethoxy-5′-fluorobenzoyl)-thieno[2,3-b]pyridine] | 100 to 1000 nM | 100 to 1000 nM | – | – | – | – | – | – | – | – | – | EC50 [1, 5]: 100 to 1000 nM; EC50 (tumor cells [2]; [6]): > 1000 nM; EC50 (tumor cells [2]; [7]): 100 to 1000 nM; IC50 (tumor cells [3]; [8]): 100 to 1000 nM; IC50 (tumor cells [3]; [9]): 100 to 1000 nM; IC50 (tumor cells [3]; [10]): 100 to 1000 nM; EC50 (tumor cells [4]; [12]): > 1000 nM; EC50 (tumor cells [4]; [13]): 100 to 1000 nM; EC50 (tumor cells [4]; [14]): > 1000 nM
4 | Nc1c(C(=O)c2ccccc2N2CCCCC2)sc2ncccc12 [Example 121] | > 1000 nM | > 1000 nM | > 1000 nM | > 1000 nM | > 1000 nM | > 1000 nM | > 1000 nM | > 1000 nM | > 1000 nM | > 1000 nM | > 1000 nM | –
5 | Nc1c(C(=O)c2ccccc2N2CCOCC2)sc2ncccc12 [Example 122] | > 1000 nM | > 1000 nM | > 1000 nM | > 1000 nM | > 1000 nM | > 1000 nM | > 1000 nM | > 1000 nM | > 1000 nM | > 1000 nM | > 1000 nM | –
6 | Nc1c(C(=O)c2ccccc2N2CC=CCC2)sc2ncccc12 [Example 123] | > 1000 nM | > 1000 nM | > 1000 nM | > 1000 nM | > 1000 nM | > 1000 nM | > 1000 nM | > 1000 nM | > 1000 nM | > 1000 nM | > 1000 nM | –
7 | Nc1c(C(=O)c2cc(F)ccc2N2CCCCC2)sc2ncccc12 [Example 124] | > 1000 nM | > 1000 nM | > 1000 nM | > 1000 nM | > 1000 nM | > 1000 nM | > 1000 nM | > 1000 nM | > 1000 nM | > 1000 nM | > 1000 nM | –
8 | Nc1c(C(=O)c2cc(F)ccc2N2CCOCC2)sc2ncccc12 [Example 125] | 100 to 1000 nM | 100 to 1000 nM | > 1000 nM | > 1000 nM | > 1000 nM | > 1000 nM | > 1000 nM | 100 to 1000 nM | > 1000 nM | 100 to 1000 nM | > 1000 nM | –
9 | Nc1c(C(=O)c2cc(F)ccc2N2CC=CCC2)sc2ncccc12 [Example 126] | 100 to 1000 nM | 100 to 1000 nM | > 1000 nM | > 1000 nM | > 1000 nM | 100 to 1000 nM | > 1000 nM | 100 to 1000 nM | > 1000 nM | 100 to 1000 nM | > 1000 nM | –
10 | CCCOc1ccc(F)cc1C(=O)c1sc2ncc([N+](=O)[O-])cc2c1N [Example 127] | > 1000 nM | > 1000 nM | > 1000 nM | > 1000 nM | > 1000 nM | > 1000 nM | > 1000 nM | > 1000 nM | > 1000 nM | > 1000 nM | > 1000 nM | –
11 | CCCOc1ccc(F)cc1C(=O)c1sc2ncc(N)cc2c1N [Example 128] | 100 to 1000 nM | > 1000 nM | 100 to 1000 nM | 100 to 1000 nM | 100 to 1000 nM | 100 to 1000 nM | > 1000 nM | 100 to 1000 nM | > 1000 nM | 100 to 1000 nM | > 1000 nM | EC50 ([1]; PBL, read-out: Hoechst 33342 nuclear staining EC50, PBL): > 1000 nM
12 | Nc1c(C(=O)c2cc(F)ccc2N2CCOCC2)sc2ncc([N+](=O)[O-])cc12 [Example 129] | > 1000 nM | > 1000 nM | > 1000 nM | > 1000 nM | > 1000 nM | > 1000 nM | > 1000 nM | > 1000 nM | > 1000 nM | > 1000 nM | > 1000 nM | –
13 | Nc1cnc2sc(C(=O)c3cc(F)ccc3N3CCOCC3)c(N)c2c1 [Example 130] | 10 to 100 nM | 100 to 1000 nM | 100 to 1000 nM | 100 to 1000 nM | 100 to 1000 nM | 100 to 1000 nM | 100 to 1000 nM | 10 to 100 nM | 100 to 1000 nM | 100 to 1000 nM | > 1000 nM | –
